Experimental data as given in patent publication EP2540163A1, “Nematocide N-cyclopropyl-sulfonylamide derivatives” (Bayer CropScience AG, priority 2011, dated 2013).

Experiment: logP by HPLC on reversed-phase column (C 18), EEC Directive 79/831 Annex V.A8, Method B (0.1% aqueous formic acid / acetonitrile, 40°C)
Type: physicochemical
Conditions: c18 reversed-phase hplc
Description: Calibration was carried out using unbranched alkan-2-ones (having 3 to 16 carbon atoms) with known logP values (determination of the logP values by the retention times using linear interpolation between two successive alkanones).

[1] = LogP method B: HPLC reversed-phase C 18, 40°C, 0.1% aqueous formic acid / acetonitrile
[2] = LogP method B: HPLC, 40°C, 0.1% aqueous formic acid and acetonitrile, gradient 10% to 90% acetonitrile

chromatographic logP [1] | chromatographic logP [2] | Structure (SMILES)
3.5 | – | CCOc1nn(C)cc1C(=O)N(C1CC1)S(=O)(=O)c1ccc(Oc2ccc(OC)c(OC)c2)c(Cl)c1 [compound 528]
3.8 | – | CCOc1nn(C)cc1C(=O)N(C1CC1)S(=O)(=O)c1ccc(Oc2cccc(N(C)C)c2)cc1Cl [compound 532]
2.6 | – | Cc1oncc1C(=O)N(C1CC1)S(=O)(=O)c1ccc(Cl)c(Cl)c1Cl [compound 604]
3.9 | – | CCOc1nn(C)cc1C(=O)N(C1CC1)S(=O)(=O)c1ccc(Oc2ccccc2)c(Cl)c1 [compound 533]
5.6 | – | CCCCCc1ccc(Oc2ccc(S(=O)(=O)N(C(=O)c3cn(C)nc3OCC)C3CC3)c(Cl)c2)cc1 [compound 560]
3.8 | – | CCOc1nn(C)cc1C(=O)N(C1CC1)S(=O)(=O)c1ccc(Oc2ccc(OC)cc2)c(Cl)c1 [compound 531]
4.3 | – | CCOc1nn(C)cc1C(=O)N(C1CC1)S(=O)(=O)c1ccc(Oc2cccc(Cl)c2)c(Cl)c1 [compound 546]
4.9 | – | CCOc1nn(C)cc1C(=O)N(C1CC1)S(=O)(=O)c1ccc(Oc2ccc(Br)c(Cl)c2)c(Cl)c1 [compound 558]
– | 4.1 | Cc1nn(C)c(F)c1C(=O)N(C1(c2ccccc2)CC1)S(=O)(=O)c1cccc(Cl)c1Cl [compound 670]
3.6 | – | Cc1nocc1C(=O)N(C1CC1)S(=O)(=O)c1ccc(Cl)c(Cl)c1Cl [compound 600]
3.6 | – | CCOc1nn(C)cc1C(=O)N(C1CC1)S(=O)(=O)c1ccc(Oc2ccccc2)cc1Cl [compound 530]
3.7 | – | O=C(c1cccnc1Cl)N(C1CC1)S(=O)(=O)c1ccc(Cl)c(Cl)c1Cl [compound 647]
2.2 | – | Cc1oncc1C(=O)N(C1CC1)S(=O)(=O)c1cccc(Cl)c1Cl [compound 603]
4.1 | – | CCOc1nn(C)cc1C(=O)N(C1CC1)S(=O)(=O)c1ccc(Oc2ccc(C(F)(F)F)cc2)cc1Cl [compound 538]
3.7 | – | Cc1nn(C)c(C(=O)N(C2CC2)S(=O)(=O)c2cccc(Cl)c2Cl)c1Cl [compound 586]
4.1 | – | CCOc1nn(C)cc1C(=O)N(C1CC1)S(=O)(=O)c1ccc(Oc2ccccc2Cl)c(Cl)c1 [compound 537]

chromatographic logP [1] | chromatographic logP [2] | Structure (SMILES)
5 | – | CCOc1nn(C)cc1C(=O)N(C1CC1)S(=O)(=O)c1ccc(Oc2cc(Cl)cc(Cl)c2)c(Cl)c1 [compound 559]
4.1 | – | CCOc1nn(C)cc1C(=O)N(C1CC1)S(=O)(=O)c1ccc(Oc2cccc(N(C)C)c2)c(Cl)c1 [compound 539]
– | 4.04 | COC(=O)C1(N(C(=O)c2c(C(F)(F)F)nn(C)c2F)S(=O)(=O)c2ccc(Cl)c(Cl)c2Cl)CC1 [compound 667]
3.1 | – | Cc1cnn(C)c1C(=O)N(C1CC1)S(=O)(=O)c1cccc(Cl)c1Cl [compound 658]
3.9 | – | CCOc1nn(C)cc1C(=O)N(C1CC1)S(=O)(=O)c1ccc(Oc2cccc(Br)c2)cc1Cl [compound 534]
2.2 | – | CCOc1nn(C)cc1C(=O)N(C1CC1)S(=O)(=O)c1ccc(Oc2ccc(C)nc2)cc1Cl [compound 525]
3.4 | – | Cn1ncc(I)c1C(=O)N(C1CC1)S(=O)(=O)c1ccc(Cl)c(Cl)c1Cl [compound 663]
4.7 | – | CCOc1nn(C)cc1C(=O)N(C1CC1)S(=O)(=O)c1ccc(Oc2ccc(Cl)cc2Cl)c(Cl)c1 [compound 555]
4.3 | – | COc1nn(C)cc1C(=O)N(C1CC1)S(=O)(=O)c1ccc(Oc2cc(Cl)cc(Cl)c2)cc1Br [compound 481]
4 | – | CCOc1nn(C)cc1C(=O)N(C1CC1)S(=O)(=O)c1ccc(Oc2ccc(F)c(Cl)c2)cc1Cl [compound 536]
2.4 | – | O=C(c1cccnc1F)N(C1CC1)S(=O)(=O)c1cccc(Cl)c1Cl [compound 649]
4.4 | – | CCOc1nn(C)cc1C(=O)N(C1CC1)S(=O)(=O)c1ccc(Oc2ccc(F)c(Cl)c2)c(Cl)c1 [compound 548]
4.4 | – | CCOc1nn(C)cc1C(=O)N(C1CC1)S(=O)(=O)c1ccc(Oc2cccc(C(F)(F)F)c2)c(Cl)c1 [compound 549]
4.5 | – | CCOc1nn(C)cc1C(=O)N(C1CC1)S(=O)(=O)c1ccc(Oc2cccc(Br)c2)c(Cl)c1 [compound 551]
4 | – | CCOc1nn(C)cc1C(=O)N(C1CC1)S(=O)(=O)c1ccc(Oc2ccc(Cl)cc2)cc1Cl [compound 535]

Continued, compound first:

Structure (SMILES) | chromatographic logP [1] | chromatographic logP [2]
CCc1nn(C)c(F)c1C(=O)N(C1CC1)S(=O)(=O)c1c(C)nn(C)c1Cl [compound 382] | 2.3 | –
Cn1nc(C(F)(F)F)c(C(=O)N(C2CC2)S(=O)(=O)c2ccc(Oc3ncc(C(F)(F)F)cc3Cl)cc2)c1F [compound 372] | 4.2 | –
CCc1nn(C)c(F)c1C(=O)N(C1CC1)S(=O)(=O)c1c(Cl)cc(Cl)cc1Cl [compound 379] | 3.6 | –
Cn1nc(C(F)(F)F)c(C(=O)N(C2CC2)S(=O)(=O)c2c(Cl)cccc2Cl)c1F [compound 360] | 3.1 | –
CC(C)c1nn(C)c(F)c1C(=O)N(C1CC1)S(=O)(=O)c1ccc(C(F)(F)F)cc1Cl [compound 97] | 4 | –
Cn1nc(C(F)F)c(C(=O)N(C2CC2)S(=O)(=O)c2ccc(Cl)cc2Cl)c1F [compound 105] | 3.4 | –
Cc1cc(Cl)cc(Cl)c1S(=O)(=O)N(C(=O)c1c(C(F)(F)F)nn(C)c1F)C1CC1 [compound 367] | 2.6 | –
Cn1cc(C(=O)N(C2CC2)S(=O)(=O)c2ccc(Cl)c(Cl)c2Cl)c(C(F)(F)F)c1 [compound 37] | 3.9 | –
Cn1nc(-c2ccccc2)c(C(=O)N(C2CC2)S(=O)(=O)c2ccc(Cl)c(Cl)c2Cl)c1F [compound 100] | 4.3 | –
Cn1nc(C(F)(F)F)c(C(=O)N(C2CC2)S(=O)(=O)c2c(Cl)cc(Cl)cc2Cl)c1F [compound 363] | 3.7 | –
COc1nn(C)cc1C(=O)N(C1CC1)S(=O)(=O)c1c(Cl)cc(C(F)(F)F)cc1Cl [compound 396] | 3 | –
CCc1nn(C)c(F)c1C(=O)N(C1CC1)S(=O)(=O)c1csc(Cl)c1Cl [compound 438] | 4 | –
Cc1cc(C(=O)N(C2CC2)S(=O)(=O)c2ccc(Cl)c(Cl)c2Cl)c(C)o1 [compound 6] | 4.4 | –
CC(C)c1nn(C)c(F)c1C(=O)N(C1CC1)S(=O)(=O)c1ccc(Cl)cc1Cl [compound 96] | 3.8 | –
COc1nn(C)cc1C(=O)N(C1CC1)S(=O)(=O)c1cnc(Cl)c(Br)c1 [compound 449] | 2 | –
CCCOc1nn(C)cc1C(=O)N(C1CC1)S(=O)(=O)c1ccc(Oc2cc(Cl)cc(Cl)c2)cc1Br [compound 305] | 5.1 | –
Cn1nc(C(F)(F)F)c(C(=O)N(C2CC2)S(=O)(=O)c2cc(Cl)c(Cl)cc2Cl)c1F [compound 361] | 4 | –
CC(F)c1nn(C)cc1C(=O)N(C1CC1)S(=O)(=O)c1cccc(Cl)c1Cl (centres unmarked) [compound 119] | 2.8 | –
COc1nn(C)c(Cl)c1C(=O)N(C1CC1)S(=O)(=O)c1cccc(Cl)c1Cl [compound 278] | 3.2 | –
COc1nn(C)cc1C(=O)N(C1CC1)S(=O)(=O)c1ccc(Oc2ccc(Cl)cc2Cl)cc1Br [compound 477] | 4.1 | –

Structure (SMILES) | chromatographic logP [1] | chromatographic logP [2]
COc1cscc1C(=O)N(C1CC1)S(=O)(=O)c1ccc(Cl)c(Cl)c1Cl [compound 27] | 3.9 | –
Cn1cc(C(=O)N(C2CC2)S(=O)(=O)c2cccc(Cl)c2Cl)c(C(F)F)n1 [compound 221] | 2.9 | –
COc1cscc1C(=O)N(C1CC1)S(=O)(=O)c1cccc(Cl)c1Cl [compound 25] | 3.3 | –
Cn1cc(C(=O)N(C2CC2)S(=O)(=O)c2cccc(Cl)c2Cl)c(C(F)(F)F)c1 [compound 36] | 3.3 | –
CCc1nn(C)c(F)c1C(=O)N(C1CC1)S(=O)(=O)c1ccc(Br)cc1Cl [compound 385] | 3.4 | –
Cn1nc(C(F)F)c(C(=O)N(C2CC2)S(=O)(=O)c2cccc(Cl)c2Cl)c1F [compound 104] | 3.2 | –
Cc1nn(C)c(N(C)C)c1C(=O)N(C1CC1)S(=O)(=O)c1ccc(Cl)c(Cl)c1Cl [compound 229] | 3.6 | –
Cn1nc(C2CC2)c(C(=O)N(C2CC2)S(=O)(=O)c2cccc(Cl)c2Cl)c1Cl [compound 225] | 4.7 | –
COc1nn(C)c(Cl)c1C(=O)N(C1CC1)S(=O)(=O)c1ccc(Oc2ccc(Br)cc2)cc1 [compound 284] | 4.3 | –
CCCOc1nn(C)cc1C(=O)N(C1CC1)S(=O)(=O)c1ccc(Oc2ccc(Cl)c(C(F)(F)F)c2)cc1Br [compound 302] | 4.9 | –
CCc1nn(C)c(F)c1C(=O)N(C1CC1)S(=O)(=O)c1ccc(Oc2ccc(Cl)cc2)cc1 [compound 391] | 4.2 | –
COc1nn(C)cc1C(=O)N(C1CC1)S(=O)(=O)c1ccc(Oc2cccc(Cl)c2)cc1Br [compound 468] | 3.7 | –
Cn1nc(C2CC2)c(C(=O)N(C2CC2)S(=O)(=O)c2ccc(Cl)c(Cl)c2Cl)c1Cl [compound 223] | 4.2 | –
Cn1nc(C(F)(F)F)c(C(=O)N(C2CC2)S(=O)(=O)c2c(Cl)sc(Cl)c2Br)c1F [compound 436] | 3.9 | –
CCc1nn(C)c(F)c1C(=O)N(C1CC1)S(=O)(=O)c1c(Cl)cc(C(F)(F)F)cc1Cl [compound 387] | 3.8 | –
Cn1nc(C(F)(F)F)c(C(=O)N(C2CC2)S(=O)(=O)c2ccc(F)cc2Cl)c1F [compound 362] | 3.1 | –
Cn1nc(-c2ccccc2)c(C(=O)N(C2CC2)S(=O)(=O)c2cccc(Cl)c2Cl)c1F [compound 101] | 3.7 | –
Cc1cc(C(=O)N(C2CC2)S(=O)(=O)c2cccc(Cl)c2Cl)nn1C [compound 74] | 2.7 | –
CCc1nn(C)c(F)c1C(=O)N(C1CC1)S(=O)(=O)c1cnc(Cl)c(Br)c1 [compound 448] | 3.5 | –
CCc1nn(C)c(F)c1C(=O)N(C1CC1)S(=O)(=O)c1cc(Cl)cc(Cl)c1 [compound 376] | 3.9 | –
